Data published in patent publication US12023318B2, “Therapy for Inflammatory Linear Verrucous Epidermal Nevus (ILVEN)” (UCL Business Ltd, priority 2018, dated 2024).

Tested on: Inflammatory Linear Verrucous Epidermal Nevus (ILVEN)
Assay: Topical cholesterol/simvastatin treatment of patients with ILVEN
Type: in vivo, human
Details: patient 9, localised ILVEN left arm; tried after no response to cholesterol/simvastatin
Source text: Fourteen patients with ILVEN were recruited. Photographs were taken of all cases as a baseline. DNA was extracted directly from lymphocytes and from affected skin biopsy without culture, using standard methods. Where possible a second skin biopsy of affected skin was also obtained for primary keratinocyte culture and immortalization with HPV to establish a stable cell line. In a minority of cases a skin biopsy of normal skin was also taken for keratinocyte culture and immortalization. Histopathology of affected skin was obtained in all cases. Thirteen of the fourteen patients were treated with […]/2% simvastatin in Unguentum Merck, applied topically twice a day for a minimum period of three months in the first instance, and only applied to one designated area of affected skin, using the rest of the skin as an internal control. If there was no response in this time the treatment was stopped. Where there was a positive response the treatment has been continued, and extended gradually to different body areas.

For `CC(C)CCC[C@@H](C)[C@H]1CC[C@H]2[C@@H]3CC=C4C[C@@H](O)CC[C@]4(C)[C@H]3CC[C@]12C` [cholesterol, Cholesterol], the “Response to cholesterol only” value was “no”.
